Converted amounts (≈) assume the structure as drawn.
Legend:
[1] = tested on: B. subtilis; experiment: Antibacterial activity (FIG. 4), B. subtilis; format: cell-based
[2] = tested on: C. difficile ATCC43596; experiment: Minimum inhibitory concentration assay
[3] = Cytotoxicity MTT assay, Vero cells; format: cell-based, monkey; conditions: monkey
Method: (§1) Cytotoxicity Assays. Cytotoxicity assays were performed using Vero monkey kidney (ATCC CCL-81) and HepG2 human hepatoblastoma cell (ATCC HB-8065) lines. Vero or HepG2 cells were cultured in 75 cm^2 flasks and transferred to 96-well cell culture plates using ATCC-formulated Eagle's minimum essential medium containing 10% FBS, penicillin, and streptomycin. Serially diluted aliquots of each test compound at concentrations ranging from 0.78-200 μg/mL were added to the cells. […] The plates were incubated and cytotoxic effects were determined via the MTT assay.
(§2) Selected molecules were tested for cytotoxicity (IC50) in cancer and healthy cells via a MTT colorimetric assay.
(§3) Cytotoxicity Assays. For Vero cells: Vero cell was cultured in Complete eagle's minimum essential growth medium (EMEM) containing L-glutamine, sodium pyruvate, minimum essential amino acids, penicillin-streptomycin and 10% fetal bovine serum. Inoculating number of cells were 400,000 cells/mL and a final 40,000 cells/well. After 72 h of exposure of molecules to this cell line at concentrations ranging from 0.78 to 200 μg/mL, the culture medium was changed to complete EMEM without phenol red before addition of yellow tetrazolium dye; MTT. Viability was assessed on the basis of cellular conversion of MTT into a purple formazan product. The absorbance of the colored formazan product was measured at 570 nm by BioTek Synergy HT Spectrophotometer. Linearity of the MTT response to the cell number was determined.

[4] = tested on: Vero cells; experiment: Cytotoxicity MTT assay, Vero cells; format: cell-based, monkey; conditions: Primates, Vero; Table 2; read-out: Vero cells IC50
Method: as §1, §2, §3

[5] = tested on: KB; experiment: Cytotoxicity MTT assay, KB; format: cell-based; conditions: Homo sapiens, KB; read-out: Cytotoxicity IC50 KB
Method: as §2
(§4) Each cell was cultured in recommended medium by ATCC, and the IC50 data were obtained with each cell line.

[6] = tested on: SK-OV-3; experiment: Cytotoxicity MTT assay, SK-OV-3; format: cell-based; conditions: Homo sapiens, SK-OV-3; read-out: Cytotoxicity IC50 SK-OV-3
Method: as §2, §4

SMILES: NC[C@H]1O[C@@H](O[C@H]([C@H]2O[C@@H](n3ccc(=O)[nH]c3=O)[C@H](O)[C@@H]2O)[C@H](NCCCC(=O)NCc2ccc(N3CCC(Oc4ccc(C(F)(F)F)cc4)CC3)cc2)C(N)=O)[C@H](O)[C@@H]1O [Compound 11]
- Antibacterial activity against B. subtilis [1]: displayed antibacterial activity
- Anti-C. difficile activity [2]: display anti-C. difficile activity
- MIC ([2]; Clostridioides difficile, ATCC43596, 48 h, read-out: C. difficile ATCC43596 MIC): 3.25 µg/mL (≈ 3.75 µM)
- Antibacterial activity against C. difficile ([2]; FIG. 4): displayed antibacterial activity
- IC50 at 72 h [3]: > 65 µM
- IC50 [4]: 56.8 µM
- IC50 [5]: 7.09 µM
- IC50 [6]: 2.85 µM

Source: US20240199677A1, “GLYCOSYLTRANSFERASE INHIBITORS” (CALIFORNIA INSTITUTE OF TECHNOLOGY, priority 2018, published 2024)
